Target: 5-hydroxytryptamine receptor 1A (Bos taurus)
Experiment: Binding affinity at 5-hydroxytryptamine 1A receptor in bovine hippocampal preparation using [3H]8-OH-DPAT

Ki: 5.3 nM
Compound: CCCN(CC1CC1)[C@H]1CCc2ccc3[nH]c(C(N)=O)cc3c2C1
